The nature of series [1]: Kinetic solubility measurements. The note with it: aqueous buffer, kinetic from dmso stock.
Series [2] has as its system NR8383 rat alveolar macrophages. The series can be described thus: Cellular delivery: pDNA uptake (ddPCR). The series is classed as cell-based. The note with it: LPS-activated NR8383; for pDNA copies per μL cell suspension: D-mannose plus pDNA. Here is the method: The cell line used was NR8383 rat alveolar macrophages, which grow as a mixture of suspended and adherent cells. The culture medium was F-12K Medium+15% FBS. The cells were plated in a 24-well format at a seeding density of 4-6×10^5 cells/mL into the wells of a 24-well plate. All conditions were performed in duplicate. The testing conditions used NR8383 cells in both unactivated and activated states. […] Activated macrophages are characteristic of macrophages found in inflammatory disease states. […] Either 0, 1, or 2 μg pDNA was used per well, with or without mannose. The combination of pDNA minus D-mannose serves as pDNA control for all conditions. The combination of pDNA with uncomplexed Mannoquin 38 was completed by adding separate pDNA and Mannoquin 38 solutions to culture. Also, pDNA with complexed Mannoquin 38 were studied wherein pre-incubated pDNA and Mannoquin 38 solutions were added to the culture. Lipofectamine 2000 transfections per manufacturer's instructions was used as a positive control. Separate confirmation of successful transfection with Lipofectamine 2000 has been confirmed. The pDNA solution used was 40 μg/mL pDNA in PBS (herein after “Working pDNA solution”). […] For studies with no pDNA, 100 μL of 1×PBS was added to the appropriate culture wells. For plasmid-only conditions, to the appropriate culture wells, 100 μL of DNA solutions was added, wherein the solution was 50 μL of Working pDNA solution+150 μL of 1×PBS (1 μg pDNA) or 100 μL of Working pDNA solution+100 μL of 1×PBS (2 μg pDNA). For non-complexed test agent conditions, to the appropriate culture wells, 50 μL of each separately prepared solution was added: DNA solution (0, 25, or 50 μL Working pDNA solution+100, 75, or 50 μL 1×PBS, respectively) or test agent solution (25, 25, or 50 μL Test Agent Working solution+75, 75, or 50 μL 1×PBS, respectively). […] PCR reaction was performed and read according to the manufacturer's protocol.

For the next series, the system named is DNA plasmid. The series can be described thus: Quinacrine-DNA binding saturation (absorbance titration). The note with it: 4 mM or 8 mM phosphate/citrate buffer; FIG. 3. Here is the method: FIG. 2 is a wavelength versus absorbance graph used to study quinacrine-DNA binding. Quinacrine concentrations were held constant under low ionic conditions (10 mM Na^+), and DNA plasmid was titrated. Absorbance was measured at 260 nm (DNA absorbance), 424 nm (quinacrine absorbance), 445 nm (quinacrine absorbance), and 461 nm (isobestic point).
FIG. 3 is a plasmid:quinacrine ratio versus absorbance graph used to study quinacrine-DNA binding saturation. The recovery of absorbance (marked with an arrow) indicates saturation. Saturation occurred at a plasmid/quinacrine ratio of 8 in 4 mM or 8 mM phosphate/citrate buffer.

Several values for one entry are separate records, joined by “and”; a condition that tells them apart may be missing. Equal entries are not always repeated.

For `C[C@]12CC[C@H]3[C@@H](CCC4=CC(=O)CC[C@@]43C)[C@@H]1CC[C@@H]2O` [Testosterone], the solubility (commonly how much of the substance goes into solution per volume) at 4 h in series [1] is 40 µM and 12 µg/mL.

With `O=C[C@@H](O)[C@@H](O)[C@H](O)[C@H](O)CO` [D-mannose], the results for the “pDNA copies per μL cell suspension” value in series [2] (1 μg pDNA) and in series [2] (2 μg pDNA) were 68 copies per μL cell suspension and 68.4 copies per μL cell suspension, respectively. Further, the “dose-dependency of uptake based on pDNA level” value in series [2] (agent plus pDNA, not complexed) is listed as “no dose-dependency”. `CCN(CC)CCCC(C)Nc1c2ccc(Cl)cc2nc2ccc(OC)cc12` (centres unmarked) [quinacrine]: the “plasmid/quinacrine ratio at saturation” value with DNA plasmid was 8.

Source of the values: patent US20260137806A1, “INTERCALATING SUGAR MOLECULES” (Xalud Therapeutics, Inc., priority 2022, published 2026).
